# Experimental data reported in US20160194358A1, “LINEAR PEPTIDE ANTIBIOTCS” (priority 2013, published 2016).
# Like-named read-outs stand apart in the source and are kept apart here. *1 amine or outer side, *2 acyl side, *3 side chain or, on linkers, in order; H or OH if unused. Where a SMILES comes first, the peptide text is derived from it. [ ]: non-standard residue; d: D form. The star is where a group is joined. boroAla((+)-pinanediol) = C[C@H](N*)B1O[C@@H]2C[C@@H]3C[C@@H](C3(C)C)[C@]2(C)O1; Benzoyl(4-(4-Cl-Ph)) = O=C(c1ccc(-c2ccc(Cl)cc2)cc1)*; Ethanesulfonyl(2-NHDecyl) = CCCCCCCCCCNCCS(=O)(=O)*; Propanoyl(3-decylamino) = CCCCCCCCCCNCCC(=O)*; X18 = CCCCc1ccc(-c2ccc(S(=O)(=O)*)cn2)cc1; X21 = O=S(=O)(c1ccc(-c2ccc(Cl)cc2)nc1)*; X32 = CCCCCCN1CCN([*:1])C(C(=O)[*:2])C1; X33 = CC(C)(O)C#CC#Cc1ccc(C(=O)*)cc1; AlaCOCOOMe = COC(=O)C(=O)[C@H](C)N*; X35 = O=C(c1cnc(-c2ccc(Cl)cc2)nc1)*; X25 = C[C@H](N*)C(=O)c1ncc(C#N)o1; Myristoyl = CCCCCCCCCCCCCC(=O)*; X23 = O=C(c1ccc(C#CC#CCCO)cc1)*; X20 = CC(N*)C(=O)C(F)(F)C(=O)O; X28 = C[C@H](N*)C(=O)c1ncccn1; X22 = C[C@H](N*)C(=O)C(=O)O; Decanoyl = CCCCCCCCCC(=O)*; X37 = C[C@H](N*)B1OCCNCCO1; boroAla = C[C@H](N*)B(O)O; Octanoyl = CCCCCCCC(=O)*; Dab = NCC[C@H](N)C(=O)O; Dap = NC[C@H](N)C(=O)O
# How the values were obtained:
# [1] = test system: Escherichia coli strain MC4100 IMP-4213, which harbors an LptD mutation; details: E. coli MC4100 IMP-4213; 35° C., 22 hours
# Protocol: (§1) In vitro antimicrobial activity of each compound was determined by measuring minimal inhibitor concentrations (MICs) using the broth micro-dilution technique as approved by the Clinical and Laboratory Standards Institute (CLSI). Antibacterial activity was measure against two strains of bacteria: 1) methicillin resistant Staphylococcus aureus (MRSA) strain USA300 (NRS384) and 2) Escherichia coli strain MC4100 IMP-4213, which harbors an LptD mutation. Bacterial inocula were prepared by scraping cells into 1 mL of testing media (cation adjusted Mueller Hinton Broth supplemented with 0.002% v/v Tween-80) and diluting to a final OD600nm of 0.01.
# (§2) Test compounds were prepared in DMSO at a concentration of 10 mg/ml. These compound stocks were diluted into testing media at a concentration of 64 μg/ml and 9 serial 1:2 dilutions were made in the same media, in 96-well U bottom microtiter dishes. Bacterial inocula were added to the two fold serial dilutions of test compounds to a final density of OD OD600nm of 0.0005 and incubated stationarily at 35° C. for 22 hours, after which the plates were examined visually.
# [2] = test system: methicillin resistant Staphylococcus aureus (MRSA) strain USA300 (NRS384)
# Protocol: as §1, §2
# [3] = MRSA USA300 (NRS384), 35° C., 22 hours
Structure (SMILES),MIC (μg/mL) E. coli [1] [µg/mL],"MIC (μg/mL) S. aureus ([2]; USA300, 22 h) [µg/mL]","MIC (μg/mL) S. aureus [2, 3] [µg/mL]"
CC(NC(=O)[C@H](CCCCN)NC(=O)[C@H](C)NC(=O)[C@@H](NC(=O)[C@H](CCN)NC(=O)c1ccc(-c2ccc(Cl)cc2)cc1)[C@@H](C)O)C(=O)C(F)(F)C(=O)O (stereo partly shown) [Compound 215] ({Benzoyl(4-(4-Cl-Ph))}-[Dab]TAK-X20),64,6.7,
CCCCCCCCCCNCCC(=O)N[C@@H](CCCCN)C(=O)N[C@@H](C)C(=O)N[C@@H](CCCCN)C(=O)N[C@@H](C)B1O[C@@H]2C[C@@H]3C[C@@H](C3(C)C)[C@]2(C)O1 [Compound 268],8,0.5,
CCCCCCCCCC(=O)NCC(=O)N[C@@H](CCCCN)C(=O)N[C@H](C(=O)N[C@@H](C)C(=O)N[C@@H](CCCCN)C(=O)N[C@@H](C)B1O[C@@H]2C[C@@H]3C[C@@H](C3(C)C)[C@]2(C)O1)[C@@H](C)O [Compound 259] (Decanoyl-GKTAK-{boroAla((+)-pinanediol)}),64,,2.4
CCCCCCCCCCNCCC(=O)N[C@@H](CCN)C(=O)N[C@H](C(=O)N[C@@H](C)C(=O)N[C@@H](CCCCN)C(=O)N[C@@H](C)B(O)O)[C@@H](C)O [Compound 219] ({Propanoyl(3-decylamino)}-[Dab]TAK-boroAla),16,1,
C[C@H](NC(=O)[C@H](CCCCN)NC(=O)[C@H](C)NC(=O)[C@@H](NC(=O)[C@H](CCN)NC(=O)c1ccc(C#CC#CC(C)(C)O)cc1)[C@@H](C)O)B1O[C@@H]2C[C@@H]3C[C@@H](C3(C)C)[C@]2(C)O1 [Compound 264] (X33-[Dab]TAK-{boroAla((+)-pinanediol)}),4,,8
C[C@H](NC(=O)[C@@H](NC(=O)[C@H](CN)NC(=O)c1ccc(-c2ccc(Cl)cc2)cc1)[C@@H](C)O)C(=O)N[C@@H](CCCCN)C(=O)N[C@@H](C)C(=O)c1ncc(C#N)o1 [Compound 266] ({Benzoyl(4-(4-Cl-Ph))}-[Dap]TAK-X25),16,,23
CCCCCCCCCCNCCC(=O)N[C@@H](CCCCN)C(=O)N[C@@H](CCC(=O)O)C(=O)N[C@@H](C)C(=O)N[C@@H](CCCCN)C(=O)N[C@@H](C)B1O[C@@H]2C[C@@H]3C[C@@H](C3(C)C)[C@]2(C)O1 [Compound 223] ({Propanoyl(3-decylamino)}-KEAK-{boroAla((+)-pinanediol)}),64,,4
CCCCCCCCCCNCCC(=O)N[C@@H](CCCCN)C(=O)N[C@H](C(=O)N[C@@H](C)C(=O)N[C@@H](CCN)C(=O)N[C@@H](C)C(=O)C(=O)O)[C@@H](C)O [Compound 255] ({Propanoyl(3-decylamino)}-KTA[Dab]-X22),>64,11,
CCCCCCCCCCNCCC(=O)N[C@@H](CN)C(=O)N[C@H](C(=O)N[C@@H](C)C(=O)N[C@@H](CC(N)=O)C(=O)N[C@@H](C)B(O)O)[C@@H](C)O [Compound 222] ({Propanoyl(3-decylamino)}-[Dap]TAN-boroAla),8,2,
CCCCCCCCCCNCCC(=O)N[C@@H](CCCCN)C(=O)N[C@@H](C)C(=O)N[C@@H](CCCCN)C(=O)N[C@@H](C)B(O)O [Compound 269],11,,0.35
CCCCCCCCCC(=O)NCC(=O)N[C@H](C(=O)N[C@@H](C)C(=O)N[C@@H](CCCCN)C(=O)N[C@@H](C)B1O[C@@H]2C[C@@H]3C[C@@H](C3(C)C)[C@]2(C)O1)[C@@H](C)O [Compound 258] (Decanoyl-GTAK-{boroAla((+)-pinanediol)}),>64,,8
CCCCc1ccc(-c2ccc(S(=O)(=O)N[C@@H](CCN)C(=O)N[C@H](C(=O)N[C@@H](C)C(=O)N[C@@H](CCCCN)C(=O)N[C@@H](C)B3O[C@@H]4C[C@@H]5C[C@@H](C5(C)C)[C@]4(C)O3)[C@@H](C)O)cn2)cc1 [Compound 232] (X18-[Dab]TAK-{boroAla((+)-pinanediol)}),11,,1.5
CCCCc1ccc(-c2ccc(CN(CCCN)C(=O)N[C@H](C(=O)N[C@@H](C)C(=O)N[C@@H](CCCCN)C(=O)N[C@@H](C)B3OC4C[C@@H]5C[C@@H](C5(C)C)[C@]4(C)O3)[C@@H](C)O)cc2)cc1 (stereo partly shown) [Compound 132],32,,5.7
C[C@H](NC(=O)[C@H](CCCCN)NC(=O)[C@H](C)NC(=O)[C@@H](NC(=O)[C@H](CCN)NC(=O)c1cnc(-c2ccc(Cl)cc2)nc1)[C@@H](C)O)B1O[C@@H]2C[C@@H]3C[C@@H](C3(C)C)[C@]2(C)O1 [Compound 261] (X35-[Dab]TAK-{boroAla((+)-pinanediol)}),4,,1.7
CCCCCCN1CCNC(C(=O)N[C@@H](CCCCN)C(=O)N[C@H](C(=O)N[C@@H](C)C(=O)N[C@@H](CCCCN)C(=O)N[C@@H](C)B2O[C@@H]3C[C@@H]4C[C@@H](C4(C)C)[C@]3(C)O2)[C@@H](C)O)C1 (stereo partly drawn) [Compound 280] (H-[X32]KTAK-{boroAla((+)-pinanediol)}),>64,,64
COC(=O)C(=O)[C@H](C)NC(=O)[C@H](CCCCN)NC(=O)[C@H](C)NC(=O)[C@@H](NC(=O)[C@H](CCN)NC(=O)c1ccc(-c2ccc(Cl)cc2)cc1)[C@@H](C)O [Compound 246] ({Benzoyl(4-(4-Cl-Ph))}-[Dab]TAK-AlaCOCOOMe),>64,,2.3
CCCCCCCCCCNCCC(=O)N[C@@H](CCCCN)C(=O)N[C@H](C(=O)N[C@@H](C)C(=O)N[C@@H](Cc1cnc[nH]1)C(=O)N[C@@H](C)B1O[C@@H]2C[C@@H]3C[C@@H](C3(C)C)[C@]2(C)O1)[C@@H](C)O [Compound 225] ({Propanoyl(3-decylamino)}-KTAH-{boroAla((+)-pinanediol)}),16,,2
CCCCCCCC(=O)N[C@@H](CN)C(=O)N[C@H](C(=O)N[C@@H](C)C(=O)N[C@@H](CCCCN)C(=O)N[C@@H](C)B1O[C@@H]2C[C@@H]3C[C@@H](C3(C)C)[C@]2(C)O1)[C@@H](C)O [Compound 260] (Octanoyl-[Dap]TAK-{boroAla((+)-pinanediol)}),32,,23
CCCCCCCCCCNCCS(=O)(=O)N[C@@H](CCN)C(=O)N[C@H](C(=O)N[C@@H](C)C(=O)N[C@@H](CCCCN)C(=O)N[C@@H](C)C(=O)C(=O)O)[C@@H](C)O [Compound 253] ({Ethanesulfonyl(2-NHDecyl)}-[Dab]TAK-X22),64,1,
CCCCCCCCCCCCCC(=O)N[C@@H](CCN)C(=O)N[C@H](C(=O)N[C@@H](C)C(=O)N[C@@H](CCCCN)C(=O)N[C@@H](C)B1O[C@@H]2C[C@@H]3C[C@@H](C3(C)C)[C@]2(C)O1)[C@@H](C)O [Compound 272] (Myristoyl-[Dab]TAK-{boroAla((+)-pinanediol)}),0.13,,0.13
CCCCCCCCCCNCCN[C@@H](CC(N)=O)C(=O)N[C@H](C(=O)N[C@@H](C)C(=O)N[C@@H](CCCCN)C(=O)N[C@@H](C)B(O)O)[C@@H](C)O [Compound 243],>64,1.4,
C[C@H](NC(=O)[C@H](CCCCN)NC(=O)[C@H](C)NC(=O)[C@@H](NC(=O)[C@H](CCN)NC(=O)c1ccc(C#CC#CCCO)cc1)[C@@H](C)O)B1O[C@@H]2C[C@@H]3C[C@@H](C3(C)C)[C@]2(C)O1 [Compound 265] (X23-[Dab]TAK-{boroAla((+)-pinanediol)}),16,,16
C[C@H](NC(=O)[C@@H](NC(=O)[C@H](CN)NC(=O)c1ccc(-c2ccc(Cl)cc2)cc1)[C@@H](C)O)C(=O)N[C@@H](CCCCN)C(=O)N[C@@H](C)C(=O)c1ncccn1 [Compound 267] ({Benzoyl(4-(4-Cl-Ph))}-[Dap]TAK-X28),32,,11
C[C@H](NC(=O)[C@H](CCCCN)NC(=O)[C@H](C)NC(=O)[C@@H](NC(=O)[C@H](CCN)NC(=O)c1ccc(-c2ccc(Cl)cc2)cc1)[C@@H](C)O)B1OCCNCCO1 [Compound 131] ({Benzoyl(4-(4-Cl-Ph))}-[Dab]TAK-X37),,,1
C[C@H](NC(=O)[C@H](CCCCN)NC(=O)[C@H](C)NC(=O)[C@@H](NC(=O)[C@H](CCN)NS(=O)(=O)c1ccc(-c2ccc(Cl)cc2)nc1)[C@@H](C)O)B(O)O [Compound 235] (X21-[Dab]TAK-boroAla),32,,16
CCCCCCCCCCNCCS(=O)(=O)N[C@@H](CCCCN)C(=O)N[C@H](C(=O)N[C@@H](C)C(=O)N[C@@H](CCCCN)C(=O)N[C@@H](C)B(O)O)[C@@H](C)O [Compound 238] ({Ethanesulfonyl(2-NHDecyl)}-KTAK-boroAla),32,0.18,
CCCCCCCCCCNCCC(=O)N[C@@H](CCCCN)C(=O)N[C@H](C(=O)N[C@@H](C)C(=O)N[C@@H](CCN)C(=O)N[C@@H](C)C(=O)C(=O)OC)[C@@H](C)O [Compound 254] ({Propanoyl(3-decylamino)}-KTA[Dab]-AlaCOCOOMe),,16,
